Where two headings read alike, the source gives them in different places.
Experiments:
Type in all cases: cell-based
[1] = tested on: Phospho-Rb (Ser807/811) in OVCAR3 cells; assay: Phospho-Rb expression inhibition in OVCAR3 cells quantified by In Cell Western; details: read-out: OVCAR-3 pRb IC50
Experimental: Phospho-Rb Expression Inhibition in OVCAR3 Cells Quantified by in Cell Western
OVCAR3 cells were obtained from American Type Culture Collection (ATCC, HTB-161). OVCAR3 cells were plated in 96-well plates (VWR #10062-900, or Corning #3904) in 90 uL culture medium at a density of 20,000 cells/well in the RPM11640 growth medium containing 10% FBS and 1% Penicillin Streptomycin, and then incubated at 37° C. overnight. The following day, the test compound was administered to the cells by using 1000× compound stock solution prepared in DMSO at various concentrations. 1000× compound stock solution was first diluted in culturing medium to 10x, then 10 uL compound medium was added to each well in the cell plates. After administration of the compound, the cells were then incubated at 37° C. for 24 hours. Upon completion, the cells were washed with PBS briefly. 150 uL/well of 4% formaldehyde was added and the plates were incubated at room temperature for 20 mins. The cells were washed with PBS briefly, and permeabilized with 150 uL/well of ice cold 100% methanol for 10 mins. The cells were washed with PBS briefly and blocked with 100 uL/well LI-COR blocking buffer for 1 hr at room temperature with gentle shaking. The cells were incubated overnight at 4° C. with 50 uL primary antibody rabbit anti-Phospho-Rb (Ser807/811) (1:500, Cell Signaling, #8516) and anti-Rb (1:200, Santa Cruz, sc-73598) diluted in Intercept Blocking Buffer (LI-COR, #927-60001) containing 0.1% Tween 20. The next day, the cells were washed with 200 uL PBS containing 0.1% Tween 20, 5×5 mins at room temperature with gentle shaking, and incubated with 50 uL secondary antibody, IRDye® 800CW Goat anti-Rabbit IgG (1:1000, LI-COR, #926-32211) and IRDye® 680RD Goat anti-Mouse IgG (1:1000, LI-COR, #926-68070), in LI-COR blocking buffer with 0.2% Tween 20 for 1 hr at room temperature with gentle shaking. The cells were washed with 200 uL PBS containing 0.1% Tween 20, 5×5 mins at room temperature with gentle shaking. The cells were washed with PBS for 5 mins. 100 uL fresh PBS was added to each well and the plates were imaged on a LI-COR Odyssey CLX plate reader.

[2] = tested on: CCNE1-amplified OVCAR3 cells; assay: Cell growth inhibition of CCNE1-amplified OVCAR3 cells (CellTiter-Glo); details: 6 days
Experimental: Cell Growth Inhibition of CCNE1-Amplified OVCAR3 Cells
(§1) OVCAR3 cells were seeded in 96-well plates at 2000 cells/well in 90 μl of RPM11640 growth medium containing 10% FBS and 1% Penicillin Streptomycin, and then incubated at 37° C. overnight. The following day, the test compound was administered to the cells by using 1000× compound stock solution prepared in DMSO at various concentrations. 1000× compound stock solution was first diluted in culturing medium to 10x, then 10 uL compound medium was added to each well in the cell plates. After administration of the compound, the cells were then incubated at 37° C. for 6 days. Upon completion, the plates were equilibrated at room temperature for approximately 10 minutes. 100 ul of CellTiter-Glo® Reagent (Promega) was added to each well. The plates were then incubated at room temperature for 10 minutes and luminescence was recorded by EnSpire plate reader (PerkinElmer).

CCNE1-normal SKOV3 cells = assay: Cell growth inhibition of CCNE1-normal SKOV3 cells (CellTiter-Glo); details: Homo sapiens, SK-OV-3, 144 h, 6 days
Experimental: Cell Growth Inhibition of CCNE1-Normal SKOV3 Cells
as §1, with “SKOV3 cells were obtained from American Type Culture Collection (ATCC, HTB-77). SKOV3” for “OVCAR3”, “1000” for “2000”

[3] = Homo sapiens, OVCAR-3, 24 hours

| SMILES | IC50 [1, 3] [nM] | IC50 ([2]; Homo sapiens, OVCAR-3, 144 h) [nM] | IC50 ([1]; 24 hours) [nM] | IC50 [2] [nM] | IC50 (CCNE1-normal SKOV3 cells) [nM] |
| --- | --- | --- | --- | --- | --- |
| C[C@@H]1C/C=C\C(F)(F)c2cc(ccn2)Nc2cc(n[nH]2)[C@H]2CC[C@H](C2)OC(=O)N1 [Compound 168, (1^1S,1^3R,2^4Z,9R)-5,5-difluoro-9-methyl-2^1H-12-oxa-3,10-diaza-4(4,2)-pyridina-2(3,5)-pyrazola-1(1,3)-cyclopentanacyclododecaphan-6-en-11-one] | 10 to 50 | 50 to 250 |  |  | > 1250 |
| C[C@H]1CCC(C)(C)NC(=O)O[C@@H]2CC[C@@H](C2)c2cc([nH]n2)Nc2ccnc(c2)O1 [Compound 113, (1^1S,1^3R,6S,Z)-6,9,9-trimethyl-2^1H-5,12-dioxa-3,10-diaza-4(4,2)-pyridina-2(3,5)-pyrazola-1(1,3)-cyclopentanacyclododecaphan-11-one] | ≤ 2 | 2 to 10 |  |  | 10 to 50 |
| CC1CCCNC(=O)OC2CCC(C2)c2cc([nH]n2)Nc2cc(c[n+]([O-])c2)O1 [Compound 154, (1^1S,1^3R,6S,Z)-6-methyl-11-oxo-2^1H-5,12-dioxa-3,10-diaza-4(3,5)-pyridin-1-iuma-2(3,5)-pyrazola-1(1,3)-cyclopentanacyclododecaphane 41-oxide] |  |  | 50 to 250 | > 250 |  |
| C[C@@H]1CCCNC(=O)O[C@@H]2CC[C@@H](C2)c2cc([nH]n2)Nc2cccc(c2)O1 [Compound 156, (1^1S,1^3R,6R,Z)-6-methyl-2^1H-5,12-dioxa-3,10-diaza-2(3,5)-pyrazola-4(1,3)-benzena-1(1,3)-cyclopentanacyclododecaphan-11-one] | > 250 | > 250 |  |  |  |
| C[C@@H]1CCC(C)(C)NC(=O)O[C@@H]2CC[C@@H](C2)c2cc([nH]n2)Nc2ccnc(c2)O1 [Compound 112, (1^1S,1^3R,6R,Z)-6,9,9-trimethyl-2^1H-5,12-dioxa-3,10-diaza-4(4,2)-pyridina-2(3,5)-pyrazola-1(1,3)-cyclopentanacyclododecaphan-11-one] | 50 to 250 | > 250 |  |  |  |
| C[C@H]1CCCOc2nccc(n2)Nc2[nH]nc(c2F)[C@H]2CC[C@H](C2)OC(=O)N1 [Compound 256, (1^1S,1^3R,9S,E)-2^4-fluoro-9-methyl-2^1H-5,12-dioxa-3,10-diaza-4(4,2)-pyrimidina-2(3,5)-pyrazola-1(1,3)-cyclopentanacyclododecaphan-11-one] | 2 to 10 | 10 to 50 |  |  |  |
| C[C@H]1CCCOc2cc(ccn2)Nc2[nH]nc(c2F)C2C[C@@H](F)[C@H](C2)OC(=O)N1 [Compound 237, (1^1R,1^3S,1^4R,9S,E)-1^4,2^4-difluoro-9-methyl-2^1H-5,12-dioxa-3,10-diaza-4(4,2)-pyridina-2(3,5)-pyrazola-1(1,3)-cyclopentanacyclododecaphan-11-one] | 10 to 50 | 50 to 250 |  |  |  |
| C[C@@H]1CC23CC(C2)(C3)NC(=O)O[C@@H]2CC[C@@H](C2)c2cc(n[nH]2)Nc2cc(nc(C(F)F)c2)O1 [compound 24] | > 250 | > 250 |  |  |  |

Continued, in another order:

| IC50 [1, 3] [nM] | IC50 ([2]; Homo sapiens, OVCAR-3, 144 h) [nM] | IC50 ([1]; 24 hours) [nM] | IC50 [2] [nM] | SMILES | IC50 (CCNE1-normal SKOV3 cells) [nM] |
| --- | --- | --- | --- | --- | --- |
| 2 to 10 | 10 to 50 |  |  | C[C@@H]1NC(=O)O[C@@H]2CC[C@@H](C2)c2cc([nH]n2)Nc2cncc(c2)OCCC1(F)F [Compound 190, (1^1S,1^3R,9S,Z)-8,8-difluoro-9-methyl-2^1H-5,12-dioxa-3,10-diaza-4(3,5)-pyridina-2(3,5)-pyrazola-1(1,3)-cyclopentanacyclododecaphan-11-one] | 250 to 1250 |
| 10 to 50 | 50 to 250 |  |  | C[C@@H]1CCCNC(=O)O[C@@H]2CC[C@@H](C2)c2cc(n[nH]2)Nc2ccnc(c2)O1 [compound 11] | > 1250 |
| 50 to 250 | 50 to 250 |  |  | C[C@H]1CCCOc2cc(c(F)cn2)Nc2cc(n[nH]2)[C@H]2CC[C@H](C2)OC(=O)N1 [Compound 174, (1^1S,1^3R,9S,Z)-4^5-fluoro-9-methyl-2^1H-5,12-dioxa-3,10-diaza-4(4,2)-pyridina-2(3,5)-pyrazola-1(1,3)-cyclopentanacyclododecaphan-11-one] | > 1250 |
| ≤ 2 | ≤ 2 |  |  | O=C1NC23CC(CCOc4cc(ccn4)Nc4cc([nH]n4)[C@H]4CC[C@H](C4)O1)(C2)C3 [Compound 22, (1^1S,1^3R,Z)-2^1H-5,11-dioxa-3,9-diaza-4(4,2)-pyridina-2(3,5)-pyrazola-8(1,3)-bicyclo[1.1.1]pentana-1(1,3)-cyclopentanacycloundecaphan-10-one] | 10 to 50 |
| ≤ 2 | 2 to 10 |  |  | O=C1NC23CC(CCOc4cc(cc(C(F)F)n4)Nc4cc([nH]n4)[C@H]4CC[C@H](C4)O1)(C2)C3 [compound 23] | 50 to 250 |
| 2 to 10 | 10 to 50 |  |  | CC1CCCOc2cc(ccn2)Nc2cc([nH]n2)[C@H]2CC[C@H](C2)OC(=O)N1 (mixture of isomers) [Compound 8, (1^1S,1^3R,Z)-9-methyl-2^1H-5,12-dioxa-3,10-diaza-4(4,2)-pyridina-2(3,5)-pyrazola-1(1,3)-cyclopentanacyclododecaphan-11-one] | > 1250 |
| 2 to 10 | 10 to 50 |  |  | O=C1NC2(CCCCc3cncc(c3)Nc3cc(n[nH]3)[C@H]3CC[C@H](C3)O1)CC2 [Compound 142, (1′S,3′R,Z)-spiro[cyclopropane-1,9′-12-oxa-3,10-diaza-4(3,5)-pyridina-2(3,5)-pyrazola-1(1,3)-cyclopentanacyclododecaphan]-11′-one] | 250 to 1250 |
| 10 to 50 | 50 to 250 |  |  | C[C@H]1CCCOc2cc(cc(F)n2)Nc2cc(n[nH]2)[C@H]2CC[C@H](C2)OC(=O)N1 [Compound 178, (1^1S,1^3R,9S,Z)-4^6-fluoro-9-methyl-2^1H-5,12-dioxa-3,10-diaza-4(4,2)-pyridina-2(3,5)-pyrazola-1(1,3)-cyclopentanacyclododecaphan-11-one] |  |
| > 250 | > 250 |  |  | C[C@@H]1CCC(C)(C)NC(=O)O[C@@H]2CC[C@@H](C2)c2cc([nH]n2)Nc2cncc(c2)O1 [Compound 123, (1^1S,1^3R,6R,Z)-6,9,9-trimethyl-2^1H-5,12-dioxa-3,10-diaza-4(3,5)-pyridina-2(3,5)-pyrazola-1(1,3)-cyclopentanacyclododecaphan-11-one] |  |
| 2 to 10 | 10 to 50 |  |  | O=C1NC2CC(COc3cncc(n3)Nc3[nH]nc(c3F)[C@H]3CC[C@H](C3)O1)C2 [Compound 236, (1^1S,1^3R,7^1R,7^3S,E)-2^4-fluoro-2^1H-5,10-dioxa-3,8-diaza-4(2,6)-pyrazina-2(3,5)-pyrazola-1(1,3)-cyclopentana-7(1,3)-cyclobutanacyclodecaphan-9-one] |  |
| 50 to 250 | > 250 |  |  | [2H]C1([2H])Oc2cc(ccn2)Nc2[nH]nc(c2Cl)[C@H]2CC[C@H](C2)OC(=O)NC2CC1C2 [Compound 222, (1^1S,1^3R,7^1R,7^3S,E)-24-chloro-2^1H-5,10-dioxa-3,8-diaza-4(4,2)-pyridina-2(3,5)-pyrazola-1(1,3)-cyclopentana-7(1,3)-cyclobutanacyclodecaphan-9-one-6,6-d2] |  |
